Consider 6 compounds from US10457655B2, “Compounds and compositions for inhibition of FASN” (FORMA Therapeutics, Inc., priority 2013, dated 2019).

Usually pIC50 stands for −log10 of the IC50, conventionally taken in molar units. The low end stands for a high IC50, the high end for a low IC50. Usually IC50 stands for the concentration needed to halve the response being measured.

Assay [1] concerns the target FASN enzyme (Homo sapiens, UniProt P49327). Nature of the assay: Enzymatic Assay for FASN Inhibitors. Format: biochemical. The method, boiled down: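 40 nM FASN preincubated with compound 60 min at 25° C in HEPES pH 7.3 buffer with 0.04% Triton X-100. Then 20 μM acetyl-CoA, 60 μM malonyl-CoA and 100 μM NADPH added for 90 min, quenched with CPM thiol probe; fluorescence 360/530 nm, IC50 by four-parameter fit.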

For assay [2], the system named is PC3 cells. Briefly: Cell Proliferation Assays for FASN Inhibitors (PC3 cells, MTT). Format: cell-based. Particulars: Homo sapiens, PC-3, 96 h. The gist of the method:
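PC3 cells seeded overnight, then exposed to compound for 4 days at 37 °C in F12K with 10% lipid-reduced serum, 0.1% final DMSO. Viability read by MTT; IC50 from four-parameter logistic fit of dose–response.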

The mark [3] stands for this setting: read-out: IC50 (uM) < 0.5, 10% lipid reduced serum, 4 days, Table 3-1.

pIC50: −log10 of the molar value. Read-outs that look alike come from different tables or passages of the source.

Chain of FASN enzyme (P49327 whole entry): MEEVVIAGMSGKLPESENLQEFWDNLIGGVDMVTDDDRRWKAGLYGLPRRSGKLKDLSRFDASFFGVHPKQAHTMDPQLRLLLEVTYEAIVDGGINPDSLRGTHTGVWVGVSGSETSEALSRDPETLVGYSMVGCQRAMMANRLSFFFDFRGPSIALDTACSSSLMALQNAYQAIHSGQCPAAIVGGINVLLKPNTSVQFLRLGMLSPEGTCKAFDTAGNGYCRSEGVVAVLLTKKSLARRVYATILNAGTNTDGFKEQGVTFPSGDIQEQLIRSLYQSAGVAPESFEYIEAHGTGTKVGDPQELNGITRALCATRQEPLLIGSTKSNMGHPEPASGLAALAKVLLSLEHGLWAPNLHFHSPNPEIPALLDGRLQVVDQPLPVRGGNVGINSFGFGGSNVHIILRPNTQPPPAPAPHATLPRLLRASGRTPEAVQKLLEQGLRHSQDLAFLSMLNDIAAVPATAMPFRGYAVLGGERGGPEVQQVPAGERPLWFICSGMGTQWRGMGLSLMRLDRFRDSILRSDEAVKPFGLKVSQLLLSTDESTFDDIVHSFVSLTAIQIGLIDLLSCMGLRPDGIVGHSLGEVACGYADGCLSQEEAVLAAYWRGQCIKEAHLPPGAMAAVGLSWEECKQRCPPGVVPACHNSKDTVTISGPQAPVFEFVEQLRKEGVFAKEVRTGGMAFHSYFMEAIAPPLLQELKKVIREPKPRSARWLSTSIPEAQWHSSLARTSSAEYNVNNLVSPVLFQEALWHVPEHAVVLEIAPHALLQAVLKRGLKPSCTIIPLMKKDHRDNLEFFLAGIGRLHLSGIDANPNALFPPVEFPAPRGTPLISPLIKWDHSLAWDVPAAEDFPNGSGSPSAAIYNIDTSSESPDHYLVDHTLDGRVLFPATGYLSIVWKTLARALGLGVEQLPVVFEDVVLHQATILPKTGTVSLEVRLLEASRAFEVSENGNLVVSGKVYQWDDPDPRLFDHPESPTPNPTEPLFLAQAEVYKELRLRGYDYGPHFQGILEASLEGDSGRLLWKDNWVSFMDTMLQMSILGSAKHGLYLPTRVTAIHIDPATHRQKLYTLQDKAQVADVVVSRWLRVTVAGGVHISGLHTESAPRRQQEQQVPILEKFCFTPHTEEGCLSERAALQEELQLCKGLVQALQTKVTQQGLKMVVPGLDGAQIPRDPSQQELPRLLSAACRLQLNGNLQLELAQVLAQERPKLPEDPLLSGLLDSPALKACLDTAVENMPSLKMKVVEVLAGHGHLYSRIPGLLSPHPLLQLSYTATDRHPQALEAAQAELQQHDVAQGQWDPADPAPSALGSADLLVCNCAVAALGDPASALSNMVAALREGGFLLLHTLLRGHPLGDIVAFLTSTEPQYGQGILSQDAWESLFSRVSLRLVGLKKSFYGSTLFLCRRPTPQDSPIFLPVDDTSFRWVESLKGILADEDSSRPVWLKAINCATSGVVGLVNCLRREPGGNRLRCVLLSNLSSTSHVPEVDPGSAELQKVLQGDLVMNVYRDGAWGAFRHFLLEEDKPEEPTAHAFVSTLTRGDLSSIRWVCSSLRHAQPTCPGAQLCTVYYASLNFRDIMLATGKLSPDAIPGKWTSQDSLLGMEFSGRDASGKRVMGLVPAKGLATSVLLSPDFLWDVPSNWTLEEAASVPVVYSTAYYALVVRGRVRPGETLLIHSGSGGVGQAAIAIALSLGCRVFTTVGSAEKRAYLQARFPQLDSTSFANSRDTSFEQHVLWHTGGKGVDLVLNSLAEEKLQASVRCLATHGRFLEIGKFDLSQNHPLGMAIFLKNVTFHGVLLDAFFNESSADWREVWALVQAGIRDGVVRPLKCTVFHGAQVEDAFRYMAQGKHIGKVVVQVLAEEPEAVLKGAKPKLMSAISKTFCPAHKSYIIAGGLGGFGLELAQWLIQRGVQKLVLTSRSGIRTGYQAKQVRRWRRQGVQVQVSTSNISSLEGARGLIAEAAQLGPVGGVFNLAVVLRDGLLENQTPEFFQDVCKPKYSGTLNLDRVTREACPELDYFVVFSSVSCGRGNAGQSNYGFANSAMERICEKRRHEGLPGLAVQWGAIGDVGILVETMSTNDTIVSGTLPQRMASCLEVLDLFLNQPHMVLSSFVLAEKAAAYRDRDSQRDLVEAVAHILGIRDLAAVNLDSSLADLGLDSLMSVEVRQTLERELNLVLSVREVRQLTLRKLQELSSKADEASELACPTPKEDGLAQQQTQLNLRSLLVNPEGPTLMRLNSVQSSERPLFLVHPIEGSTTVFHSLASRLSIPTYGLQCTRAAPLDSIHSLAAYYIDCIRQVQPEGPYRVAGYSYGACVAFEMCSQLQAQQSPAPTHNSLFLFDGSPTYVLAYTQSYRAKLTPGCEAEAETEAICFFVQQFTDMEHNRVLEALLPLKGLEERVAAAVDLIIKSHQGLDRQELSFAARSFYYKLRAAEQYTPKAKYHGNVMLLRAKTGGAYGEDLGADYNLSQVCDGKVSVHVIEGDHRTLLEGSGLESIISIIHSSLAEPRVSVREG

In the case of `N#Cc1c[nH]c2ccc(-c3ccc(C(=O)N4CCN(C(=O)C5(O)CC5)CC4)cc3)cc12` [5-[4-({4-[(1-hydroxycyclopropyl)carbonyl]piperazin-1-yl}carbonyl)phenyl]-1H-indole-3-carbonitrile], the pIC50 in assay [1] was above 6.30. Further, the IC50 in assay [2] (setting [3]) is below 0.5 µM.

Turning to `O=C(c1ccc(-c2ccc3[nH]ccc3c2)cc1)N1CCN(C(=O)C2CCO2)CC1` (stereo not drawn) [5-[4-({4-[(oxetan-2-yl)carbonyl]piperazin-1-yl}carbonyl)phenyl]-1H-indole], the pIC50 in assay [1] was above 6.30. Moreover, the IC50 in assay [2] (read-out: IC50 (uM) ≥ 0.5, 10% lipid reduced serum, 4 days, Table 3-2) is at least 0.5 µM.

In the case of `O=C(c1ccc(-c2ccc3cnccc3c2)cc1)N1CCN(C(=O)C2CCO2)CC1` (stereo not drawn) [6-[4-({4-[(oxetan-2-yl)carbonyl]piperazin-1-yl}carbonyl)phenyl]isoquinoline], the pIC50 in assay [1] was above 6.30. Further, the IC50 in assay [2] (setting [3]) is below 0.5 µM.

Compound `O=C(c1ccc(-c2cccc(NS(=O)(=O)c3ccccc3)c2)cc1)N1CCN(C(=O)C2(O)CC2)CC1` [N-{3-[4-({4-[(1-hydroxycyclopropyl)carbonyl]piperazin-1-yl}carbonyl)phenyl]phenyl}benzenesulfonamide] showed a pIC50 in assay [1] above 6.30. For the same compound, the IC50 in assay [2] (setting [3]) is below 0.5 µM.

In assay [1], `O=C(c1ccc(-c2cccc(NS(=O)(=O)C3CC3)c2)cc1)N1CCN(C(=O)C2(O)CC2)CC1` [N-{3-[4-({4-[(1-hydroxycyclopropyl)carbonyl]piperazin-1-yl}carbonyl)phenyl]phenyl}cyclopropanesulfonamide] had a pIC50 above 6.30. Moreover, the IC50 in assay [2] (setting [3]) was below 0.5 µM.

With `CS(=O)(=O)Nc1cccc(-c2ccc(C(=O)N3CCN(C(=O)C4(O)CC4)CC3)cc2)c1` [N-{3-[4-({4-[(1-hydroxycyclopropyl)carbonyl]piperazin-1-yl}carbonyl)phenyl]phenyl}methanesulfonamide], the negative-log IC50 (pIC50) in assay [1] is above 6.30. In assay [2] (setting [3]), the IC50 was below 0.5 µM.
